Assay results from patent US7314858B2, “Retrocyclins: antiviral and antimicrobial peptides” (priority 2001, dated 2008).
Where a SMILES comes first, the peptide text is derived from it. Bridges are numbered along the chain shown (N, C = ends).

How the values were obtained:
HIV-1 IIIB = assay: Activity of theta-defensins against HIV-1 IIIB (FIG. 21); type: cell-based
Text: (§1) FIG. 21A-21B. Activity of theta-defensins against HIV-1 BAL; and HIV-1 IIIB.
(§2) The data shown in FIGS. 21A and 21B illustrate the activity of these retrocyclin-related peptides against two different strains of HIV-1, BAL and IIIB. […] BAL and IIIB are widely studied, laboratory adapted strains of HIV.

HIV-1 BAL = assay: Activity of theta-defensins against HIV-1 BAL (FIG. 21); type: cell-based
Text: as §1, §2

HIV-1 = settings: cited from earlier work
HIV-1 strain IIIB = assay: HIV-1 IIIB infection of H9 cells, p24 antigen ELISA; type: cell-based; settings: H9 cells, IIIB (X4), peptide 10-20 μg/ml
Procedure: FIG. 1. Circular minidefensins reduce HIV-1 infection of H9 cells. HIV-I strain IIIB (MOI=10^−2) was incubated with 2.5×10^5 H9 cells in the presence or absence of 20 μg/ml RTD-1, RTD-2 or RTD-3. p24 antigen release was monitored by ELISA on days 3, 6, and 9. Assay sensitivity=10 pg/ml.
Immortalized CD4^+ H9 cells, which are permissive for infection with this strain, were maintained in RPMI supplemented with 10% heat-inactivated fetal calf serum (FCS), 10 mM HEPES, 2 mM glutamine, 100 U of penicillin/ml, and 10 μg of streptomycin/ml (R10 media). Cells (2.5×10^5/100 μl) were incubated with virus (multiplicity of infection (MOI)=10^−2) in the presence or absence of 20 μg/ml RTD-1, RTD-2 or RTD-3 for 3 hrs at 37° C./5% CO2. The cells were washed in R10 media, seeded in 48-well tissue culture plates in 1 ml R10 media, and incubated at 37° C./5% CO2 for 9 days. Aliquots of cell supernatant were removed at the specified time points and analyzed by a sensitive ELISA (DuPont NEN) that quantitates p24 antigen of HIV-1. The three circular rhesus minidefensins were similarly active, inhibiting HIV-1 by 100-1000 fold by 9 days post-inoculation (note the logarithmic scale).
Either HIV-1-permissive H9 cells were used as targets, or primary CD4^+ lymphocytes from HIV-1-seronegative donors generated from freshly purified peripheral blood mononuclear cells (PBMC) stimulated with a CD3-CD8 bispecific monoclonal antibody. After approximately 7 days, when 98% of these cells co-expressed CD3 and CD4, they were infected with HIV-1 with or without retrocyclin or other test peptide. These cells were maintained in RPMI containing 10% FCS supplemented with 2 mM glutamine, 100 U of penicillin/ml, 10 μg of streptomycin/ml, and 50 U of interleukin 2/ml (R10-50 media).
Mature retrocyclin was prepared by a three-step process.

L. monocytogenes EGD = assay: Two-stage radial diffusion assay; type: cell-based, Listeria monocytogenes
Procedure: (§3) FIG. 4. Effect of salt on antibacterial activity of circular minidefensins. Human retrocyclin and monkey RTD-1 were tested against our standard lab stains: E. coli ML-35p, P. aeruginosa MR 3007, L. monocytogenes EGD, and S. aureus 930918. The bars show MIC values±SEM values that resulted from 3-6 radial diffusion assays per organism and assay condition.
(§4) The effects of NaCl on the antimicrobial activity of retrocyclin and RTD-1, from two-stage radial diffusion assays, are compared in FIG. 4.

E. coli ML-35p = assay: Two-stage radial diffusion assay; type: cell-based, Escherichia coli
Procedure: as §3, §4

MTT cytotoxicity assay = type: cell-based, human; settings: human, H9 cells
Procedure: FIG. 8. Cytotoxicity of antimicrobial peptides against H9 cells. Retrocyclin, RTD-1 and PG-1 (a porcine-derived peptide with anti-HIV-1 activity) were tested for cytotoxicity using an MTT assay for cell proliferation. Note that the EC50 of Retrocyclin and RTD-1 were >100 μg/ml, concentrations well above their antiviral concentration.
Retrocyclin is not cytotoxic. […] Retrocyclin was not hemolytic for human erythrocytes.

Molecule: Orang-2: cyclic GVCRC ICGRG VCRCI CRR (SEQ ID NO:134) (cyclo(GVCRCICGRGVCRCICRR); disulfide (positions not given here); ring closure inferred; not fully specified (bridges))
- potency against HIV-1 IIIB (HIV-1 IIIB): more potent than retrocyclins 1 and 2 and RC101
- potency against HIV-1 BAL (HIV-1 BAL): more potent than retrocyclins 1 and 2 and RC101

Molecule: indolicidin
- concentration reproducibly virucidal against HIV-1 (HIV-1): 333 µg/mL

Molecule: CC[C@H](C)[C@@H]1NC(=O)[C@@H]2CSSC[C@H](NC(=O)[C@H](CCCNC(=N)N)NC(=O)[C@@H]3CSSC[C@H](NC1=O)C(=O)N[C@@H]([C@@H](C)O)C(=O)N[C@@H](CCCNC(=N)N)C(=O)NCC(=O)N[C@@H](Cc1ccccc1)C(=O)N3)C(=O)N[C@@H](CC(C)C)C(=O)N[C@H]1CSSC[C@H](NC(=O)[C@H](C(C)C)NC(=O)CNC(=O)[C@H](CCCNC(=N)N)NC(=O)[C@H](CCCNC(=N)N)NC1=O)C(=O)N[C@@H](CCCNC(=N)N)C(=O)N2 [RTD-1, reference compound] (cyclo(GFCRCLCRRGVCRCICTR); disulfide 3-16, 5-14, 7-12)
- inhibition of HIV-1 replication (p24) (HIV-1 strain IIIB): protective to a lesser extent than retrocyclin
- effect of salt on antimicrobial activity (L. monocytogenes EGD; hypersalinity (175 mM NaCl)): only modestly inhibitory
- antimicrobial activity (L. monocytogenes EGD; physiological (100 mM) NaCl): strong activity
- effect of salt on antimicrobial activity (E. coli ML-35p; hypersalinity (175 mM NaCl)): only modestly inhibitory
- antimicrobial activity (E. coli ML-35p; physiological (100 mM) NaCl): strong activity
- EC50 (MTT cytotoxicity assay): > 100 µg/mL
